Laboratory results taken from patent US9359196B2, “Antiproliferative compositions comprising curcumin analogs and methods of producing and using same” (The Board of Regents of the University of Oklahoma, priority 2009, dated 2016).

Columns and labels:
[1] = tested on: MiaPaCa-2 (pancreatic cancer) cells; test: Cell proliferation study in MiaPaCa-2 cells; type: cell-based
Experimental: (§1) Cell Culture and drug treatment: Human lung adenocarcinoma cell line NCI-H441 (ATCC Number: HTB-174) was obtained from the American Type Culture Collection (Manassas, Va.). H441 cells were maintained at 37° C. with 5% CO2 in McCoy's 5A Medium (Invitrogen, Carlsbad, Calif.) supplemented with 5% heat-inactivated fetal bovine serum (FBS). All media contained gentamicin at 50 μg/ml (GIBCO Laboratories, Grand Island, N.Y.). Other cells lines (PANC-1, MiaPaCa-2 and PC-3) were also similarly maintained, except that the cell culture medium was RPMI 1640 instead of McCoy's.
(§2) To evaluate the anti-proliferative activity of synthesized bis(2-fluorobenzylidene)-4-piperidone and its derivatives, the cells were seeded in 96-well flat-bottom tissue culture plates at a density of 10×10^3 cells per well. The cells were allowed to attach and grow overnight. The test compounds were solubilized in dimethyl sulfoxide (DMSO), filtered through 0.2 μm nylon filter and added to cells at 1, 10, 25 and 100 μM concentrations in culture medium supplemented with 5% FBS. […]
(§3) Cell Proliferation: The total number of cells after the treatment period was estimated by the hexosaminidase assay. […] The absorbance was measured at 405 nm. […] The data were analyzed as percent of control, where the control wells were treated with equivalent amounts of DMSO alone, and the analyzed data was presented as average±standard error of mean. […]

[2] = tested on: caspase-3/7 activation in H441 cells; test: Caspase-3 immunoblotting and Apo-One caspase-3/7 assay in H441 cells; type: cell-based, human
[3] = tested on: PANC-1 (pancreatic cancer) cells; test: Cell proliferation study in PANC-1 cells; type: cell-based
Experimental: as §1, §2, §3

[4] = tested on: H441 cells; test: Illumina microarray gene expression analysis of H441 cells; type: cell-based, human; settings: H441, 1 μM, 12 hours
Experimental: RNA Extraction and microarray sample processing: H441 cells were seeded in […] tissue culture plates at a density of 1×10^6 cells per well. The cells were allowed to attach and grow overnight and then treated with CLEFMA (n=5) at 1 μM in culture medium supplemented with 5% FBS. The DMSO concentration was maintained at 0.1% per well. Control wells (n=5) received equivalent volumes of DMSO without any test compound. The cells were kept in the treatment medium for 12 hours, after which the cells were washed twice with ice-cold Dulbecco's phosphate buffered saline (PBS). The total RNA was extracted using the RNAeasy kit (Qiagen, CA) as per the manufacturer's instructions. The quality of RNA was ascertained by the Nanodrop 2000 spectrophotometer (NanoDrop products, Wilmington, Del.).
The expression of >48,000 genes were compared using Illumina Human WG-6 v3 arrays. Hybridization to Illumina microarrays was performed at the Oklahoma Medical Research Foundation (Oklahoma City, USA). RNA (250 ng) from each sample was labeled using the Illumina Total Prep RNA Amplification Kit following the manufacturer's directions (Ambion, Austin, Tex.). Briefly, cDNA was reverse transcribed from RNA after priming with T7-oligo-dT, and cRNA was synthesized from the T7 promoter while incorporating biotinylated UTP. The cRNA was then hybridized overnight to Illumina BeadChips, and the microarray chips were washed with high stringency and labeled with streptavidin-Cy3 (Amersham Biosciences; Piscataway, N.J.) prior to scanning on an Illumina BeadArray Reader.
Microarray Data Analysis: The Illumina WG-6_v3 array data for each experimental condition were exported from the BeadStudio Software for further analysis. The data were normalized as described previously [Dozmorov et al., 2004; Dozmorov et al., 2009] using the variability of low-expressing genes as a reference point. In order to find genes expressed above the level of technical noise, a frequency histogram of raw expression values was examined for each array. The histogram yielded a right-skewed unimodal distribution curve with a mode of approximately 75. A normal distribution curve representing the variability of the data around zero was then fitted around the mode, mirroring the Gaussian profile of the left part of the histogram. Its parameters were then defined (mean and standard deviation (SD)) and the data were normalized to the standard deviation of the noise after subtraction of the mean. […] The data were then filtered to remove genes with an expression value less than 3.0. This is equivalent to setting a threshold at 3 SD above the noise level. The genes that expressed below the noise level under all experimental conditions (approximately 1,600) were excluded from consideration, as their expression could not be reliably assessed. Full microarray data were deposited in the Gene Expression Omnibus (GEO, GSE23420) and are accessible on the GEO web site.
To identify differentially expressed genes between two experimental groups, the associative analysis as described elsewhere [Dozmorov et al., 2009] was used. Briefly, a reference group of genes expressed above background with low variability of expression in pooled microarray datasets was identified by an F-test. […] For the genes with statistically significant variability above the random, the variations were assumed to have biological reasons. An associative t-test was applied to investigate if a given gene belongs to a certain group. […]

O=C(O)C=CC(=O)N1CC(=Cc2ccccc2Cl)C(=O)C(=Cc2ccccc2Cl)C1 [Compound 29, 4-[3,5-Bis-(2-chlorobenzylidene)-4-oxo-piperidin-1-yl]-4-oxo-2-butenoic acid]
potency of antiproliferative action [1]: enhanced the potency of antiproliferative action | caspase-3 activation level (immunoblotting) ([2]; H441 cell lysates): no change in its activation level | cleavage-based caspase activation (Apo-One caspase-3/7 assay) ([2]; H441 cells): no cleavage-based caspase activation was seen | potency of antiproliferative action [3]: enhanced the potency of antiproliferative action | GAPDH expression increase [4]: 1.3 fold | HMOX1 expression increase [4]: 5.3 fold | SOD1 expression increase [4]: 1.3 fold | SULTA1 expression increase [4]: 3.8 fold | SULTA2 expression increase [4]: 8.5 fold
